Reference: EP4786454A1, “HETEROARYL DERIVATIVE AND USE THEREOF” (priority 2023, dated 2025)

Assays:
[1] = Plasma protein binding rate, equilibrium dialysis (rat plasma); format: in vitro ADME, Sprague-Dawley rats; details: r (Sprague-Dawley rat plasma), dialysis 4 hours at 37 °C, read-out: Unbound PPB%
Protocol: (§1) The protein binding rates of the compounds in the plasma of CD-1 mice, Sprague-Dawley rats, beagle dogs, cynomolgus monkeys, and human were determined using equilibrium dialysis method.
(§2) Commercially available plasma, dual-layer dialysis membrane, and equilibrium dialysis device.
(§3) The dual-layer dialysis membrane was soaked in ultrapure water for about 1 hour, removed and then divided into two parts. It was then soaked in an ethanol:water (20:80, v:v) solution for 20 minutes or placed at 2 to 8 °C, and it was valid for 1 month. Before starting the assay, the dialysis membrane was rinsed twice with ultrapure water and then soaked in ultrapure water for another 20 minutes for later use.
(§4) On the day of assay, the frozen plasma of CD-1 mice, Sprague-Dawley rats, beagle dogs, cynomolgus monkeys, and human was thawed in running cold tap water. After the plasma was completely thawed, the plasma was centrifuged at 3220×g for 5 minutes, and the suspended substances and precipitates in it were removed. The pH of the plasma was determined. The plasma with a pH in the range of 7.4 ± 0.1 was directly used, or the plasma with a pH in the range of 7.4 ± 0.1 after an adjustment with 1% phosphoric acid or 1M sodium hydroxide was used.
(§5) Preparation process of plasma samples: 597 µL of blank plasma from each of the above five species was taken, respectively. 3 µL of a compound or warfarin working solution was added, and the mixture was mixed thoroughly to give a plasma sample with a compound concentration of 2 µM and a warfarin concentration of 2 µM (n=1). The concentration of the organic phase DMSO was 0.5%. The sample was thoroughly mixed before proceeding to the next step.
(§6) Preparation process of T0 samples: 50 µL of a plasma sample containing the compound and warfarin was transferred to a sample receiving plate (n=3), and 50 µL of blank PBS was immediately added. Then, 500 µL of stop solution was added to the T0 sample of the compound and warfarin, and the mixture was stored at 2 to 8 °C, waiting to be processed later together with other dialysis-processed samples.
(§7) Dialysis process of plasma samples: 100 µL of a compound (2 µM) and warfarin (2 µM) plasma sample was added to the donor of each dialysis well (n=3), and 100 µL of blank PBS was added to the corresponding receiver of the dialysis well. The dialysis plate was placed in a 5% CO2 incubator, and incubated at 37 °C with shaking at approximately 100 rpm for 4 hours.
(§8) After the dialysis was completed, 50 µL of dialysis-processed PBS sample and dialysis-processed plasma sample (n=3) were transferred to a new 96-well plate (sample receiving plate). The corresponding volume of the corresponding blank plasma or PBS was added to the sample to make the final volume of each sample well 100 µL, with a plasma to PBS volume ratio of 1:1. All the samples were analyzed by LC-MS/MS after protein precipitation.
(§9) The formulas for calculating the unbound fraction (%Unbound), bound fraction (%Bound) and recovery fraction (%Recovery) of a compound are as follows: %Unbound = 100 ×F / T %Bound = 100 - %Unbound %Recovery = 100 ×(F + T)/ T0 wherein F is the concentration of the compound at the receiver of dialysis; T is the concentration of the compound at the supply end of dialysis; and T0 is the concentration of the compound in the plasma at time zero.

[2] = Plasma protein binding rate, equilibrium dialysis (dog plasma); format: in vitro ADME, beagle dogs; details: d (beagle dog plasma), dialysis 4 hours at 37 °C, read-out: Unbound PPB%
Protocol: as §1, §2, §3, §4, §5, §6, §7, §8, §9

[3] = Plasma protein binding rate, equilibrium dialysis (mouse plasma); format: in vitro ADME, CD-1 mice; details: m (CD-1 mouse plasma), dialysis 4 hours at 37 °C, read-out: Unbound PPB%
Protocol: as §1, §2, §3, §4, §5, §6, §7, §8, §9

[4] = Plasma protein binding rate, equilibrium dialysis (human plasma); format: in vitro ADME; details: dialysis 4 hours at 37 °C, read-out: Unbound PPB%
Protocol: as §1, §2, §3, §4, §5, §6, §7, §8, §9

[5] = Plasma protein binding rate, equilibrium dialysis (monkey plasma); format: in vitro ADME, cynomolgus monkeys; details: c (cynomolgus monkey plasma), dialysis 4 hours at 37 °C, read-out: Unbound PPB%
Protocol: as §1, §2, §3, §4, §5, §6, §7, §8, §9

[6] = target: T1, hKCNQ2/3 (Homo sapiens, UniProt O43525+O43526); assay: hKCNQ2/3 thallium flux assay (FLIPR); format: cell-based; details: agonistic effect, CHO cell line stably expressing hKCNQ2/3
T1 construct: expressed in transfected cells; host or cells: CHO
T1 sequence (O43525 whole entry): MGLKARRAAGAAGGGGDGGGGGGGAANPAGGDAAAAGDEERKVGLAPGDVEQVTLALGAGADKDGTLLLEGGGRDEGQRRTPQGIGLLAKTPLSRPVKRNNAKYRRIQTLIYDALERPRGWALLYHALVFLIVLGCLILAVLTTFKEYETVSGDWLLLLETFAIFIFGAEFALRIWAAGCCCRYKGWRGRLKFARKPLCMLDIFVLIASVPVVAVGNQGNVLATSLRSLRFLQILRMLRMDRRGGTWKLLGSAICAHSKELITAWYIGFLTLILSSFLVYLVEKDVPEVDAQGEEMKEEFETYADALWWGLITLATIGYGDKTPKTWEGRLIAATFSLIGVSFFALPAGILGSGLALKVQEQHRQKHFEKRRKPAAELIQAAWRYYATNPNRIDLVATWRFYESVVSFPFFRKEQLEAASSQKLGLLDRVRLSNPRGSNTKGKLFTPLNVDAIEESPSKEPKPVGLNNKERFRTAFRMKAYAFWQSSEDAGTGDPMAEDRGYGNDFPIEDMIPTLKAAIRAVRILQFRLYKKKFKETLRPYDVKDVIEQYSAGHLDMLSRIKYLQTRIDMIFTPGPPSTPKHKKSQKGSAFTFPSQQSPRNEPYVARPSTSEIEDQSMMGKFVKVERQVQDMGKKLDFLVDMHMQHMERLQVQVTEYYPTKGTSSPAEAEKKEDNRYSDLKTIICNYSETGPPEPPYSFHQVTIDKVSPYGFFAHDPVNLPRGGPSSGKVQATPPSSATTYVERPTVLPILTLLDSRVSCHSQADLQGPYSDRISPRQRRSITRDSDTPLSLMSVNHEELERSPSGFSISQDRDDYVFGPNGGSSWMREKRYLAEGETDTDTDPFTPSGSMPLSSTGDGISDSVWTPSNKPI
T1 sequence (O43526 whole entry): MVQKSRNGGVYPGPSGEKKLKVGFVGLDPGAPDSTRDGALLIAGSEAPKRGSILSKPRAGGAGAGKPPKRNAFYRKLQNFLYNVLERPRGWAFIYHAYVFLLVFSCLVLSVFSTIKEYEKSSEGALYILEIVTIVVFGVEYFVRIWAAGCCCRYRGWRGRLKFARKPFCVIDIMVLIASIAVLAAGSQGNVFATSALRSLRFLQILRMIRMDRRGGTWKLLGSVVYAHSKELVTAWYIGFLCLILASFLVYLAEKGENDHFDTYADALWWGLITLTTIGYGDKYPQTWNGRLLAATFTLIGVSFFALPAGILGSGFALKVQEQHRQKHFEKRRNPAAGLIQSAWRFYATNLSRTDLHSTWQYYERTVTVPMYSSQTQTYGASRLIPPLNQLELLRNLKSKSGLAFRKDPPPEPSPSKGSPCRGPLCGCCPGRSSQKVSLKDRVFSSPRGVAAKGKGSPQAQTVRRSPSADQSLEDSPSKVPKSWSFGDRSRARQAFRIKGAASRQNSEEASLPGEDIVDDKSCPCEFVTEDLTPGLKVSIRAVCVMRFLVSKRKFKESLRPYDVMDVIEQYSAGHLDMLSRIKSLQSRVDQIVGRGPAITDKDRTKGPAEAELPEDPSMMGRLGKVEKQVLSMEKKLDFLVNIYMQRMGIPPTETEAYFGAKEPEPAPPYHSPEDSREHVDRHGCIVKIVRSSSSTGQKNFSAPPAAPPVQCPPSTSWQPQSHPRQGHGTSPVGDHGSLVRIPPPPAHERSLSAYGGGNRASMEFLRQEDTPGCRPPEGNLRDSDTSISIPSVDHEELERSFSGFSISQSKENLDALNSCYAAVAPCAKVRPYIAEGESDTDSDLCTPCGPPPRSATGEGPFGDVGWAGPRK
From the text: The present disclosure also provides the following assay methods: • Assay method 1: hKCNQ2/3 thallium flux assay • Purpose of the assay: To determine the in vitro concentration-response relationship of the compounds in a CHO cell line stably expressing hKCNQ2/3 using FLIPR thallium flux assay.
CHO cells stably transfected with hKCNQ2/3.
The cell line was passaged three times a week at a split ratio of 1:2 to 1:3. When the cells grew to a confluence degree of greater than 80% in a T-75 cell flask, they were digested with 0.25% trypsin-EDTA solution for about 1 minute, and then the cells were transferred from the cell flask for passage. According to the split ratio, the cells were transferred to another T-75 cell flask containing complete cell growth culture medium. Note: In order to maintain the logarithmic growth of cells, the cell growth should be maintained in a subconfluent monolayer state. The cells were passaged every 2 to 3 days according to the cell doubling time.
• (1) Day 1, cell preparation: The cells were digested according to the above method, and the cell density and viability were determined using Cell Countess. The volume of the single-cell suspension was adjusted with complete cell growth culture medium. Then, the hKCNQ2/3_CHO cells were seeded at a density of approximately 20,000 cells/well (30 µL/well) into a PDL-precoated 384-well plate. Then, the plate was incubated at 37 °C with 5% CO2 humidified air in an incubator overnight. • (2) Day 2, compound preparation: A test compound was diluted to a storage concentration with dimethyl sulfoxide (DMSO), and stored in a freezer at -20 °C. A compound addition program was set up on the ECHO liquid workstation, and the compound was added to the plate using the ECHO liquid workstation. A positive control was prepared using Retigabine (RTG) with a maximum concentration of 100 µM, which was subjected to a 3-fold dilution, resulting in a total of 9 doses constituting the plate map required for plating. Prepare the plate using a stimulation buffer containing 5 mM K^+ and 1 mM Tl^+. Note: 1) K2SO4 and Tl2SO4 were prepared in a 1× chloride-free buffer. When different voltage-gated potassium channels were involved, the concentrations of Tl^+ and K^+ were needed to be adjusted. The concentration of Tl^+ was approximately 0.5 mM to 5 mM, and the concentration of K^+ was approximately 5 mM to 30 mM. 2) Each 1 mM solution of K2SO4 and Tl2SO4 contained 2 mM K^+ and Tl^+. The final concentration should be calculated based on the ion concentrations. 3) TlCl was easily precipitated and a chloride-free buffer was required. • (3) Day 2, assay testing: When the cells reached the confluence degree, the cell analysis plate was taken out from the incubator. The assay buffer was prepared and the Tl^+ dye (Molecular Devices # R8222) was diluted. The culture medium was discarded using the liquid workstation Bravo and 25 µL of Tl^+ dye was added to each well. The plate was incubated for 1 hour, and then the cell analysis plate, composite plate, and FLIPR tip were placed in FLIPR^TETRA (Molecular Devices, USA) for FLIPR assay. The tip was set up, and then the baseline was read for 60 seconds. Then, 12.5 µL from the composite plate (3×) was added to the cell analysis plate, and the data were recorded for at least 5 minutes at the same time. • (4) Data processing: The maximum signal was generated with FLIPR software. Excel (2013) and Prism 6.01 were used for data analysis. The data quality control was performed with S/B > 2.00 and Z-factor > 0.50. IC50 or EC50 was defined as the midline between the lowest and the highest plateaus, and it was calculated using a four-parameter logistic model with Prism 6.01.
Purpose of the assay: To determine the in vitro concentration-response relationship of the compounds in a CHO cell line stably expressing hKCNQ2/3 using FLIPR thallium flux assay. […]

[7] = system: male CD-1 mice; assay: Maximal electroshock-induced epilepsy model, behavioral pharmacodynamics; format: in vivo; details: 5 mg/kg orally, one hour before electrical stimulation
From the text: This study used behavioral tests in male CD-1 mice to investigate the effects of test compounds on acute epileptic seizures behavior induced by maximal electroshock.
Male CD-1 mice (25 to 35g) were used as the experimental animals and fed with standard feed (Beijing Vital River Laboratory Animal Technology Co., Ltd.).
After arriving at the animal facility, the experimental animals needed to acclimatize for at least one week. The mice were observed daily for vital signs, and randomly divided into groups according to their body weights one day before the drug administration. One hour before the electrical stimulation, different dosages of the test compound were orally administered to each group. On the day of the assay, the male CD-1 mice in each group were anesthetized locally at the cornea with 2% lidocaine. Then, silver bipolar electrodes were used to electrically stimulate the cornea of the mice with 18 mA, 60 Hz, a pulse width of 0.6 ms, and a stimulation time of 1 s to induce seizures. Subsequently, the latency of seizures and the duration of limb rigidity in mice after the electrical stimulation were observed, and the protection rate from seizures for each group was statistically analyzed.

SMILES	fraction unbound at 4 h, 2 µM [1]	fraction unbound at 4 h, 2 µM [2]	fraction unbound at 4 h, 2 µM [3]	fraction unbound at 4 h, 2 µM [4]	fraction unbound at 4 h, 2 µM [5]	EC50 [6]	Protection rate from seizures [7]
CC(C)(C)CC(=O)Nc1nc2cc3c(cc2n1C1CCC1)CCC3 [Compound 7]	0.003	0.006	0.003	0.004	0.012	0.42 µM	66.67%
CC(C)(C)CC(=O)Nc1nc2c(F)c3c(cc2n1C1CCC1)CCC3 [Compound 8]	–	–	–	–	–	0.42 µM	50%
CC(C)(C)CC(=O)Nc1nc2cc3c(cc2n1C1(C)CCC1)CCC3 [Compound 9]	0.002	0.004	0.002	0.003	0.004	0.16 µM	50%
CC(C)(C)CC(=O)Nc1nc2cc3c(cc2n1C(C)(C)C)CCC3 [Compound 10]	–	–	–	–	–	0.12 µM	33.33%
